Source: US8183242B2, “Aminopyrimidine compounds and their salts, process for preparation and pharmaceutical use thereof” (priority 2004, dated 2012)
Marks after values point to notes of the source that are not given here.

Tests used:
[1] = tested on: transplant tumor of human granulocytic leukemia K562; experiment: Test Example 2: therapeutic effect on naked mice with transplant tumor of human granulocytic leukemia K562; settings: for Body weight before dissection d0 / TV x ± SD d0: d0 = grouping and first administration; for Body weight before dissection dn / TV x ± SD dn: dn = day 21; for CR: complete extinction (complete resolution) of tumor: end of experiment (Day 21), mice with CR/group; for mice in which the tumor was extinct: 75 mg/kg oral gavage once per day
Description: Animals were allowed to acclimatize the environment for one week, and then the animals were inoculated subcutaneously human leukemia K562 cells. When the tumors have grown to a volume of 100-300 mm^3, the animals were randomly grouped (d0). The naked mice were administered by oral gavage. […] The animals were administered once per day for 21 days. Measured the volume of the tumors 2-3 times per week and weighed the animals followed by recording the data. The formula for calculating the volume of tumor (V): V=½×a×b^2, wherein a represents the length and b represents the width.
The mice were continuously administered by oral gavage once per day for 21 days.

[2] = tested on: transplant tumor of human granulocytic leukemia K562; experiment: Test Example 3: therapeutic effect of HH-GV-678 and Gleevec on naked mice with transplant tumor of human granulocytic leukemia K562; settings: for Body weight before dissection d0 / TV x ± SD d0: d0 = grouping and first administration; for Body weight before dissection dn / TV x ± SD dn: dn = day 21; for CR: complete resolution: end of experiment, mice with CR/group
Excerpt: Animals were allowed to acclimatize the environment for one week, and then the animals were inoculated subcutaneously human leukemia K562 cells. When the tumors have grown to a volume of 100-300 mm^3, the animals were randomly grouped (d0). […] Measured the volume of the tumors 2-3 times per week and weighed the animals followed by recording the data. The formula for calculating the volume of tumor (V): V =1/2×a×b^2, wherein a represents the length and b represents the width.

[3] = tested on: human acute promyelocytic leukemia HL-60 cell; experiment: MTT assay, inhibition of proliferation of HL-60 cells cultured in vitro (Bcr-Abl negative control model); type: cell-based; settings: drug 48 h
Description: HL-60: human acute promyelocytic leukemia Cell. The expression of Bcr-Abl tyrosine kinase is negative.
(§1) Cells were grown in a medium containing 10% fetal bovine serum and were kept in the logarithmic growth phase.
(§2) The cells were pre-incubated in an incubator at 37° C. in 5% CO2 for 24 hours. The drug with 6 to 8 different concentrations was added and treated continuously for 48 h.
(§3) After the treatment of the drug, take photos by a phase contrast microscope. Then MTT treatment solution was added into each well and after 4 hours lysed the cells by DMSO. The OD values for each well were determined by using Plarstar ELIASA.
Concentration setting: 5-8 concentrations within the range of 0.001-10 μM were set, and each concentration is set in triplicate.

[4] = tested on: human chronic myelogenous leukemia K562 cell (expressing P210 Bcr-Abl tyrosine kinase); experiment: MTT assay, inhibition of proliferation of K562 cells cultured in vitro
Description: as §1, §2, §3

[5] = 75 mg/kg oral gavage once per day 21 days
[6] = 150 mg/kg oral gavage once per day 21 days
[7] = 150 mg/kg each time, oral gavage twice per day 21 days
[8] = 37.5 mg/kg oral gavage once per day 21 days

In the case of `Cc1ccc(NC(=O)c2ccc(CN3CCN(C)CC3)cc2)cc1Nc1nccc(-c2cccnc2)n1` [Gleevec, Imatinib, reference compound], the “RTV x ± SD” value [1, 5] is reported as 8.56 ± 7.09, the T/C [1, 5] is reported as 121.0% and the “Body weight before dissection d0” value [1, 5] is reported as 19.3 gram. For the same compound, the “TV x ± SD d0” value [1, 5] was 153 ± 68 mm^3, the “Body weight before dissection dn” value [1, 5] was 15.6 gram and the “TV x ± SD dn” value [1, 5] was 971 ± 154 mm^3. The “CR: complete extinction (complete resolution) of tumor” value (“CR: complete extinction” below) [1, 5] was 0/6, the mice died ([1]; 150 mg/kg group, Day 18, death considered to be related to the tumor) was 1/6 and the “RTV x ± SD” value [1, 6] was 8.30 ± 5.65. For the same compound, the T/C [1, 6] was 117.7%, the “Body weight before dissection d0” value [1, 6] was 20.3 gram and the “TV x ± SD d0” value [1, 6] was 127 ± 45 mm^3. For the same compound, the “Body weight before dissection dn” value [1, 6] was 16.3 gram, the “TV x ± SD dn” value [1, 6] was 824 ± 170 mm^3 and the “CR: complete extinction” value [1, 6] was 0/6. The “effect on the growth of the tumor” value ([1]; present protocol: 75 and 150 mg/kg oral gavage once per day 21 days) was “did not have significant effect on the growth of the tumor”, the T/C [2, 7] was 34.2* % and the “Body weight before dissection d0” value [2, 7] was 24.1 gram. For the same compound, the “TV x ± SD d0” value [2, 7] was 144 ± 33 mm^3, the “Body weight before dissection dn” value [2, 7] was 20.6 gram and the “TV x ± SD dn” value [2, 7] was 501 ± 347 mm^3. For the same compound, the “CR: complete resolution” value [2, 7] was 2/8 and the “complete resolution (CR) of tumors, mice of the group” value (“complete resolution (CR) of tumors” for short) ([2]; 150 mg/kg each time, oral gavage twice per day, Day 12) was 1/8.

For `CS(=O)(=O)O.Cc1ncc(NC(=O)c2ccc(CN3CCN(C)CC3)c(C(F)(F)F)c2)cc1Nc1nccc(-c2cccnc2)n1` [HH-GV-F, 4-((4-methylpiperazin-1-yl)methyl)-N-[6-methyl-5-[[4-(pyrid-3-yl)pyrimidin-2-yl]amino]pyrid-3-yl]-3-(trifluoromethyl)-benzamide methanesulfonic acid salt], the IC50 [3] was no less than 10 µM, the “RTV x ± SD” value [1, 8] was 2.85 ± 3.18 and the T/C [1, 8] was 40.4* %. For the same compound, the “effect on the growth of K562 tumor” value [1, 8] was “significantly inhibited the growth of K562 tumor, but did not cause the tumor extinct”, the “Body weight before dissection d0” value [1, 8] was 19.3 gram and the “TV x ± SD d0” value [1, 8] was 119 ± 51 mm^3. The “Body weight before dissection dn” value [1, 8] was 18.8 gram, the “TV x ± SD dn” value [1, 8] was 294 ± 255 mm^3 and the “CR: complete extinction” value [1, 8] was 0/6. For the same compound, the “RTV x ± SD” value [1, 5] was 1.38 ± 3.08, the T/C [1, 5] was 19.6* % and the “Body weight before dissection d0” value [1, 5] was 19.2 gram. The “TV x ± SD d0” value [1, 5] was 127 ± 46 mm^3, the “Body weight before dissection dn” value [1, 5] was 19.3 gram and the “TV x ± SD dn” value [1, 5] was 95 ± 199 mm^3. For the same compound, the “CR: complete extinction” value [1, 5] was 4/6, the “mice in which the tumor was extinct” value ([1]; Day 9) was 1/6 and the “mice in which the tumor was extinct” value ([1]; Day 12) was 4/6. The “mice in which the tumor was extinct” value ([1]; Day 15) was 5/6, the “RTV x ± SD” value [2, 5] was 0 ± 0 and the T/C [2, 5] was 0* %. For the same compound, the “Body weight before dissection d0” value [2, 5] was 24.0 gram, the “TV x ± SD d0” value [2, 5] was 168 ± 65 mm^3 and the “Body weight before dissection dn” value [2, 5] was 24.7 gram. The “TV x ± SD dn” value [2, 5] was 0 ± 0 mm^3, the “CR: complete resolution” value [2, 5] was 7/8 and the “complete resolution (CR) of tumors” value ([2]; 75 mg/kg oral gavage once per day, Day 6) was 3/8. For the same compound, the “complete resolution (CR) of tumors” value ([2]; 75 mg/kg oral gavage once per day, Day 9) was 7/8, the “complete resolution (CR) of tumors” value ([2]; 75 mg/kg oral gavage once per day, Day 12) was 8/8 and the “RTV x ± SD” value [2, 6] was 0 ± 0. For the same compound, the T/C [2, 6] was 0* %, the “Body weight before dissection d0” value [2, 6] was 24.3 gram and the “TV x ± SD d0” value [2, 6] was 152 ± 37 mm^3. For the same compound, the “Body weight before dissection dn” value [2, 6] was 23.9 gram, the “TV x ± SD dn” value [2, 6] was 0 ± 0 mm^3 and the “CR: complete resolution” value [2, 6] was 8/8. For the same compound, the “complete resolution (CR) of tumors” value ([2]; 150 mg/kg oral gavage once per day, Day 6) was 6/8, the “complete resolution (CR) of tumors” value ([2]; 150 mg/kg oral gavage once per day, Day 9) was 8/8 and the toxicity ([2]; mouse, in vivo) was “relatively lower”.

With `CS(=O)(=O)O.Cc1ncc(NC(=O)c2ccc(CN3CCN(C)CC3)c(Cl)c2)cc1Nc1nccc(-c2cccnc2)n1` [HH-GV-E, 4-((4-methylpiperazin-1-yl)methyl)-N-[6-methyl-5-[[4-(pyrid-3-yl)pyrimidin-2-yl]amino]pyrid-3-yl]-3-chloro-benzamide methanesulfonic acid salt] the IC50 [3] was greater than 10 µM, the “RTV x ± SD” value [1, 5] was 9.60 ± 6.51 and the T/C [1, 5] was 103.6%. For the same compound, the “Body weight before dissection d0” value [1, 5] was 18.5 gram, the “TV x ± SD d0” value [1, 5] was 130 ± 58 mm^3 and the “Body weight before dissection dn” value [1, 5] was 14.2 gram. The “TV x ± SD dn” value [1, 5] was 954 ± 242 mm^3, the “CR: complete extinction” value [1, 5] was 0/6 and the “RTV x ± SD” value [1, 6] was 3.24 ± 1.65. For the same compound, the T/C [1, 6] was 47.4* %, the “effect on the growth of K562 tumor” value [1, 6] was “significant inhibition effect on the growth of K562 tumor” and the “Body weight before dissection d0” value [1, 6] was 18.8 gram. For the same compound, the “TV x ± SD d0” value [1, 6] was 149 ± 31 mm^3, the “Body weight before dissection dn” value [1, 6] was 15.2 gram and the “TV x ± SD dn” value [1, 6] was 455 ± 214 mm^3. The “CR: complete extinction” value [1, 6] was 0/6, the “selectivity for the target” value ([4]; HL-60 versus K562 cells) was greater than 125 folds and the IC50 ([4]; Homo sapiens, K562, 48 h, read-out: IC50, inhibition of proliferation of leukemia cells) was 0.08 µM.
